Laboratory results taken from patent US4416884A, “Piperazinylbenzoheterocyclic compounds” (Otsuka Pharmaceutical Co., Ltd., priority 1978, dated 1983).
Values after ≈ are worked out from the molar mass of the structure shown. Read-outs that look alike come from different tables or passages of the source.

Experiments:
Assay type in all cases: cell-based
[1] = system: Bacillus subtilis PCI 219; experiment: antimicrobial activity, serial dilution method on agar plate; conditions: read-out: Minimum Inhibitory Concentration
Outline: (§1)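 Test compounds were diluted serially into Heart Infusion agar plates. Each organism was adjusted to 1×10^8 cells/ml by optical density at 660 mμ, then also diluted to 1×10^6 cells/ml. Minimum inhibitory concentrations were recorded in mcg/ml.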

[2] = system: Enterobacter aerogenes IFO 12979; experiment: as above; conditions: Klebsiella aerogenes, read-out: Minimum Inhibitory Concentration
Outline: as §1

[3] = system: Enterobacter cloacae; experiment: as above; conditions: read-out: Minimum Inhibitory Concentration
Outline: as §1

[4] = system: Escherichia Coli NIHJ; experiment: as above; conditions: read-out: Minimum Inhibitory Concentration
Outline: as §1

[5] = system: Hafnia alvei IFO 3731; experiment: as above; conditions: read-out: Minimum Inhibitory Concentration
Outline: as §1

[6] = system: Proteus rettgeri NIH 96; experiment: as above; conditions: Providencia rettgeri, read-out: Minimum Inhibitory Concentration
Outline: as §1

[7] = system: Pseudomonas aeruginosa ATCC 10145; experiment: as above; conditions: read-out: Minimum Inhibitory Concentration
Outline: as §1

[8] = system: Pseudomonas aeruginosa NCTC 10490; experiment: as above; conditions: read-out: Minimum Inhibitory Concentration
Outline: as §1

[9] = system: Pseudomonas putida IFO 13696; experiment: as above; conditions: read-out: Minimum Inhibitory Concentration
Outline: as §1

[10] = system: Serattia marcescens IFO 12648; experiment: as above; conditions: read-out: Minimum Inhibitory Concentration
Outline: as §1

[11] = system: Shigella Sonnei EW 33; experiment: as above; conditions: read-out: Minimum Inhibitory Concentration
Outline: as §1

[12] = system: Staphylococcus aureus FDA 209 P; experiment: as above; conditions: read-out: Minimum Inhibitory Concentration
Outline: as §1

[13] = system: Streptococcus pneumoniae Type III; experiment: as above; conditions: inoculum 1 × 10^8 cells/ml, read-out: Minimum Inhibitory Concentration
Outline: as §1

[14] = system: Streptococcus pneumoniae Type I; experiment: as above; conditions: inoculum 1 × 10^8 cells/ml, read-out: Minimum Inhibitory Concentration
Outline: as §1

[15] = system: Yersinia enterocolitica 0-3; experiment: as above; conditions: read-out: Minimum Inhibitory Concentration
Outline: as §1

[16] = system: Yersinia enterocolitica 0-5; experiment: as above; conditions: Yersinia enterocolitica, 05; inoculum 1 × 10^8 cells/ml; read-out: Minimum Inhibitory Concentration
[17] = system: Test Organism 21 (Bacillus subtilis PCI 219); experiment: influence of the addition of horse serum on the MIC

## CC1CCc2cc(F)cc3c(=O)c(C(=O)O)cn1c23 (stereo not shown) [F]
[1]; PCI219, inoculum 1 × 10^6 cells/ml
  MIC: 0.2 µg/mL (≈ 0.766 µM)
[1]; PCI219, inoculum 1 × 10^8 cells/ml
  MIC: 0.4 µg/mL (≈ 1.53 µM)
[2]; IFO12979, inoculum 1 × 10^6 cells/ml
  MIC: 0.2 µg/mL (≈ 0.766 µM)
[2]; IFO12979, inoculum 1 × 10^8 cells/ml
  MIC: 0.4 µg/mL (≈ 1.53 µM)
[3]; inoculum 1 × 10^6 cells/ml
  MIC: 0.2 µg/mL (≈ 0.766 µM)
[3]; inoculum 1 × 10^8 cells/ml
  MIC: 0.4 µg/mL (≈ 1.53 µM)
[4]; inoculum 1 × 10^6 cells/ml
  MIC: 0.1 µg/mL (≈ 0.383 µM)
[4]; inoculum 1 × 10^8 cells/ml
  MIC: 0.2 µg/mL (≈ 0.766 µM)
[5]; IFO3731, inoculum 1 × 10^6 cells/ml
  MIC: 125 µg/mL (≈ 478 µM)
[5]; IFO3731, inoculum 1 × 10^8 cells/ml
  MIC: 25 µg/mL (≈ 95.7 µM)
[6]; NIH96, inoculum 1 × 10^6 cells/ml
  MIC: 0.1 µg/mL (≈ 0.383 µM)
[6]; NIH96, inoculum 1 × 10^8 cells/ml
  MIC: 0.2 µg/mL (≈ 0.766 µM)
[7]; ATCC10145, inoculum 1 × 10^6 cells/ml
  MIC: 12.5 µg/mL (≈ 47.8 µM)
[7]; ATCC10145, inoculum 1 × 10^8 cells/ml
  MIC: 25 µg/mL (≈ 95.7 µM)
[8]; NCTC10490, inoculum 1 × 10^6 cells/ml
  MIC: 12.5 µg/mL (≈ 47.8 µM)
[8]; NCTC10490, inoculum 1 × 10^8 cells/ml
  MIC: 25 µg/mL (≈ 95.7 µM)
[9]; IFO13696, inoculum 1 × 10^6 cells/ml
  MIC: 125 µg/mL (≈ 478 µM)
[9]; IFO13696, inoculum 1 × 10^8 cells/ml
  MIC: 25 µg/mL (≈ 95.7 µM)
[10]; inoculum 1 × 10^6 cells/ml
  MIC: 0.4 µg/mL (≈ 1.53 µM)
[10]; inoculum 1 × 10^8 cells/ml
  MIC: 0.8 µg/mL (≈ 3.06 µM)
[11]; inoculum 1 × 10^6 cells/ml
  MIC: 0.8 µg/mL (≈ 3.06 µM)
[11]; inoculum 1 × 10^8 cells/ml
  MIC: 0.8 µg/mL (≈ 3.06 µM)
[12]; FDA209, inoculum 1 × 10^6 cells/ml
  MIC: 1.6 µg/mL (≈ 6.12 µM)
[12]; FDA209, inoculum 1 × 10^8 cells/ml
  MIC: 3.1 µg/mL (≈ 11.9 µM)
[13]
  MIC: > 100 µg/mL
[14]
  MIC: > 100 µg/mL
[15]; Yersinia enterocolitica, 03, inoculum 1 × 10^6 cells/ml
  MIC: 0.4 µg/mL (≈ 1.53 µM)
[15]; Yersinia enterocolitica, 03, inoculum 1 × 10^8 cells/ml
  MIC: 0.8 µg/mL (≈ 3.06 µM)
[16]
  MIC: 0.4 µg/mL (≈ 1.53 µM)
[17]; horse serum 0%, inoculum 10^6, read-out: Minimum Inhibitory Concentration
  MIC: 0.8 µg/mL (≈ 3.06 µM)
[17]; horse serum 0%, inoculum 10^8, read-out: Minimum Inhibitory Concentration
  MIC: 0.8 µg/mL (≈ 3.06 µM)
[17]; horse serum 10%, inoculum 10^6, read-out: Minimum Inhibitory Concentration
  MIC: 0.8 µg/mL (≈ 3.06 µM)
[17]; horse serum 10%, inoculum 10^8, read-out: Minimum Inhibitory Concentration
  MIC: 0.8 µg/mL (≈ 3.06 µM)
[17]; horse serum 20%, inoculum 10^6, read-out: Minimum Inhibitory Concentration
  MIC: 0.8 µg/mL (≈ 3.06 µM)
[17]; horse serum 20%, inoculum 10^8, read-out: Minimum Inhibitory Concentration
  MIC: 0.8 µg/mL (≈ 3.06 µM)
[17]; horse serum 40%, inoculum 10^6, read-out: Minimum Inhibitory Concentration
  MIC: 1.6 µg/mL (≈ 6.12 µM)
[17]; horse serum 40%, inoculum 10^8, read-out: Minimum Inhibitory Concentration
  MIC: 1.6 µg/mL (≈ 6.12 µM)
